Experimental data reported in patent publication US20260285876A1, “MACROCYCLIC COMPOUNDS AS USP1 INHIBITORS” (GUANGDONG NEWOPP BIOPHARMACEUTICALS CO., LTD., priority 2023, published 2026).

biological target: T1, USP1/UAF1 (Homo sapiens, UniProt O94782); experiment: Deubiquitination assay for USP1/UAF1 (ubiquitin-rhodamine 110 substrate); assay type: biochemical; settings: 0.5 nM USP1/UAF1, 150 nM ubiquitin-rhodamine, 50% inhibition compared to DMSO control
T1 construct: purchased R&D Systems
Description: Deubiquitination assay for USP1/UAF1: compounds described here were tested for their ability to inhibit USP1 deubiquitinase activity in this assay using ubiquitin-rhodamine 110 as the substrate. The assay was conducted in the assay buffer (50 mM Tris-HCl, pH 7.8, 0.5 mM EDTA, 0.1 mg/ml Bovine Serum Albumin, 1 mM DTT, 0.01% Tween-20) in 384 well plates. 0.5 nM USP1/UAF1 (R&D Systems) was incubated with compounds in dose response format for 10 minutes at room temperature. Then the reaction was initiated by addition of 150 nM ubiquitin-rhodamine (R&D Systems). The fluorescence intensity was read after 45 minutes at Ex488/Em535 by CLARIOstar (BMG Labtech). IC50 response curves were plotted.

T1 sequence (O94782 whole entry): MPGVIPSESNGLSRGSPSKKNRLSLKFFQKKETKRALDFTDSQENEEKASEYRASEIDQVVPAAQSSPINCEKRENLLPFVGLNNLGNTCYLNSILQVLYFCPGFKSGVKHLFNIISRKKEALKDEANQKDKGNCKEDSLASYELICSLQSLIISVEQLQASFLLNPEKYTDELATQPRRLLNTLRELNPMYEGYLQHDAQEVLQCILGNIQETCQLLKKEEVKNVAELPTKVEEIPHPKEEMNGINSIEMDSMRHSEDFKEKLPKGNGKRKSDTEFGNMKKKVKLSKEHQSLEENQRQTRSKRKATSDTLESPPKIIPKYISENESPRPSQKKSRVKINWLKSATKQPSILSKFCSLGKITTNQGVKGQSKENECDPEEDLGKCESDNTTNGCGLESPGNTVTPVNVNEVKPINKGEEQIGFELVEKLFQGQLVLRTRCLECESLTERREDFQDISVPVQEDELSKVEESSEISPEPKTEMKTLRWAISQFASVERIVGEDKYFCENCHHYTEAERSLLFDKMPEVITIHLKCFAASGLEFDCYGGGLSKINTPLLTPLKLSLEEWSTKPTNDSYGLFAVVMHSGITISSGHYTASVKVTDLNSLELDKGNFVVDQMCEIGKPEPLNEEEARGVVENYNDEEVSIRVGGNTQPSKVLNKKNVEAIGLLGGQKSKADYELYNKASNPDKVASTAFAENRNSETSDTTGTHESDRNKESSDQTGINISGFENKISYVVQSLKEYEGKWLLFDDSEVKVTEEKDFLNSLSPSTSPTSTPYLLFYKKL
T1 sequence (Q8TAF3 whole entry partner): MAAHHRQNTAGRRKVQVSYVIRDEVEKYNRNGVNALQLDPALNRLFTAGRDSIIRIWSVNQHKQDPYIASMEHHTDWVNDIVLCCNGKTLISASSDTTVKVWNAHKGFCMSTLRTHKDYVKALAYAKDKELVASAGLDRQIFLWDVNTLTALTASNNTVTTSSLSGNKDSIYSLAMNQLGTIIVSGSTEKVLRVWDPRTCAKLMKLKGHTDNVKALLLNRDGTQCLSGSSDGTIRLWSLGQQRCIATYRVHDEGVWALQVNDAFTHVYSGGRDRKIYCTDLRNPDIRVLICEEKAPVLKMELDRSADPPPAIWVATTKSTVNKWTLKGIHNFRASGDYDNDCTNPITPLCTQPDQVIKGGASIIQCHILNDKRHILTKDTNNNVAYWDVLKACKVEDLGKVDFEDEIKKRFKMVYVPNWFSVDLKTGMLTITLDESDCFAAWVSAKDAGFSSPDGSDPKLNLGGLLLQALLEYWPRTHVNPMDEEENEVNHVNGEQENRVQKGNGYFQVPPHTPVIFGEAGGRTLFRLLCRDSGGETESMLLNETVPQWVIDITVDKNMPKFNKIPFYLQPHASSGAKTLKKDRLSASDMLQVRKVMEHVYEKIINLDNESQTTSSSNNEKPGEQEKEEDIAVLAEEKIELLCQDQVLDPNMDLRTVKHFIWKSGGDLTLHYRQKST

Row | IC50 [nM] | Structure (SMILES)
1 | 100 to 1000 | CC(C)n1cc(C(F)(F)F)nc1-c1ccc2cc1OCCCCOc1ncnc(C3CC3)c1-c1ncc3cnn(c3n1)C2 [Example 48, 1^6-cyclopropyl-4^4-(1-isopropyl-4-(trifluoromethyl)-1H-imidazol-2-yl)-2^1H-5,10-dioxa-2(6,1)-pyrazolo[3,4-d]pyrimidina-1(5,4)-pyrimidina-4(1,3)-benzenacyclodecaphane]
2 | ≤ 100 | CC(C)n1cc(C(F)(F)F)nc1-c1ccc2cc1/C=C/CCOc1ncnc(C3CC3)c1-c1ncc3cnn(c3n1)C2 [Example 44, (E)-1^6-cyclopropyl-4^4-(1-isopropyl-4-(trifluoromethyl)-1H-imidazol-2-yl)-2^1H-9-oxa-2(6,1)-pyrazolo[3,4-d]pyrimidina-1(5,4)-pyrimidina-4(1,3)-benzenacyclononaphan-5-ene]
3 | ≤ 100 | CC(C)n1cc(C(F)(F)F)nc1-c1ccc2c(c1)C#CCOc1ncnc(C3CC3)c1-c1ncc3cnn(c3n1)C2 [Example 54, (E)-16-cyclopropyl-44-(1-isopropyl-4-(trifluoromethyl)-1H-imidazol-2-yl)-21H-9-oxa-2(6,1)-pyrazolo[3,4-d]pyrimidina-1(5,4)-pyrimidina-4(1,2)-benzenacyclononaphan-5-ene4(1,2 benzenacyclononaphane]
4 | ≤ 100 | CC(C)n1cc(C(F)(F)F)nc1-c1ccc2c(c1)NCCCOc1cccc(C3CC3)c1-c1ncc3cnn(c3n1)C2 [Example 26, 1^6-cyclopropyl-4^4-(1-isopropyl-4-(trifluoromethyl)-1H-imidazol-2-yl)-2^1H-9-oxa-5-aza-2(6,1)-pyrazolo[3,4-d]pyrimidina-1,4(1,2)-dibenzenacyclononaphane]
5 | ≤ 100 | CC(C)n1cc(C(F)(F)F)nc1-c1ccc2c(c1)NCCCOc1ncnc(C3CC3)c1-c1ncc3ccn(c3n1)C2 [Example 35, 1^6-cyclopropyl-4^4-(1-isopropyl-4-(trifluoromethyl)-1H-imidazol-2-yl)-2^7H-9-oxa-5-aza-2(2,7)-pyrrolo[2,3-d]pyrimidina-1(5,4)-pyrimidina-4(1,2)-benzenacyclononaphane]
6 | ≤ 100 | CC(C)n1cc(C(F)(F)F)nc1-c1ccc2c(c1)OCCNc1ncnc(C3CC3)c1-c1ncc3cnn(c3n1)C2 [Example 11, 1^6-cyclopropyl-4^4-(1-isopropyl-4-(trifluoromethyl)-1H-imidazol-2-yl)-2^1H-5-oxa-8-aza-2(6,1)-pyrazolo[3,4-d]pyrimidina-1(5,4)-pyrimidina-4(1,2)-benzenacyclooctaphane]
7 | ≤ 100 | Fc1cc2n3nc(ncc13)-c1c(ncnc1C1CC1)OCCOc1cc(-c3nc(C(F)(F)F)cn3C3CC3)ccc1C2 [Example 34, (Z)-1^6-cyclopropyl-4^4-(1-cyclopropyl-4-(trifluoromethyl)-1H-imidazol-2-yl)-2^5-fluoro-5,8-dioxa-2(2,7)-pyrrolo[2,1-f][1,2,4]triazina-1(5,4)-pyrimidina-4(1,2)-benzenacyclooctaphane]
8 | ≤ 100 | CC(C)n1cc(C(F)(F)F)nc1-c1ccc2c(c1)CCCOc1ncnc(C3CC3)c1-c1ncc3cnn(c3n1)C2 [Example 9, 1^6-cyclopropyl-4^4-(1-isopropyl-4-(trifluoromethyl)-1H-imidazol-2-yl)-2^1H-8-oxa-2(6,1)-pyrazolo[3,4-d]pyrimidina-1(5,4)-pyrimidina-4(1,2)-benzenacyclooctaphane]

The next lines start with the compound.

Row | Structure (SMILES) | IC50 [nM]
9 | CC(C)n1cc(C(F)(F)F)nc1-c1ccc2c(c1)OCCOc1ncnc(C3CC3)c1-c1ncc3ccc(n3n1)C2 [Example 31, (Z)-1^6-cyclopropyl-4^4-(1-isopropyl-4-(trifluoromethyl)-1H-imidazol-2-yl)-5,8-dioxa-2(2,7)-pyrrolo[2,1-f][1,2,4]triazina-1(5,4)-pyrimidina-4(1,2)-benzenacyclooctaphane] | ≤ 100
10 | FC(F)(F)c1cn(C2CC2)c(-c2ccc3cc2OCCCOc2ncnc(C4CC4)c2-c2ncc4ccc(n4n2)C3)n1 [Example 52, (Z)-1^6-cyclopropyl-4^4-(1-cyclopropyl-4-(trifluoromethyl)-1H-imidazol-2-yl)-5,9-dioxa-2(2,7)-pyrrolo[2,1-f][1,2,4]triazina-1(5,4)-pyrimidina-4(1,3)-benzenacyclononaphane] | ≤ 100
11 | CC(C)n1cc(C(F)(F)F)nc1-c1ccc2c(c1)OCCCNc1ncnc(C3CC3)c1-c1ncc3ccc(=O)n(c3n1)C2 [Example 19, 1^6-cyclopropyl-4^4-(1-isopropyl-4-(trifluoromethyl)-1H-imidazol-2-yl)-2^7,2^8-dihydro-5-oxa-9-aza-2(2,8)-pyrido[2,3-d]pyrimidina-1(5,4)-pyrimidina-4(1,2)-benzenacyclononaphan-2^7-one] | 100 to 1000
12 | CC(C)n1cc(C(F)(F)F)nc1-c1ccc2cc1CCCCOc1ncnc(C3CC3)c1-c1ncc3cnn(c3n1)C2 [Example 45, 1^6-cyclopropyl-4^4-(1-isopropyl-4-(trifluoromethyl)-1H-imidazol-2-yl)-2^1H-9-oxa-2(6,1)-pyrazolo[3,4-d]pyrimidina-1(5,4)-pyrimidina-4(1,3)-benzenacyclononaphane] | ≤ 100
13 | CC(C)c1cc(C(F)(F)F)nn1-c1ccc2c(c1)NCCCOc1ncnc(C3CC3)c1-c1ncc3cnn(c3n1)C2 [Example 37, 16-cyclopropyl-44-(5-isopropyl-3-(trifluoromethyl)-1H-pyrazol-1-yl)-21H-9-oxa-5-aza-2(6,1)-pyrazolo[3,4-d]pyrimidina-1(5,4)-pyrimidina-4(1,2)-benzenacyclononaphane] | ≤ 100
14 | CC(C)n1cc(C(F)(F)F)nc1-c1ccc2c(c1)OCCCOc1ncnc(C3CC3)c1-c1ncc3cnn(c3n1)C2 [Example 5, 1^6-cyclopropyl-4^4-(1-isopropyl-4-(trifluoromethyl)-1H-imidazol-2-yl)-2^1H-5,9-dioxa-2(6,1)-pyrazolo[3,4-d]pyrimidina-1(5,4)-pyrimidina-4(1,2)-benzenacyclononaphane] | ≤ 100
15 | CC(C)n1cc(C(F)(F)F)nc1-c1ccc2cc1NCCOc1ncnc(C3CC3)c1-c1ncc3cnn(c3n1)C2 [Example 40, 1^6-cyclopropyl-4^4-(1-isopropyl-4-(trifluoromethyl)-1H-imidazol-2-yl)-2H-8-oxa-5-aza-2(6,1)-pyrazolo[3,4-d]pyrimidina-1(5,4)-pyrimidina-4(1,3)-benzenacyclooctaphane] | ≤ 100
16 | Cc1cc(C(F)(F)F)nn1-c1ccc2cc1OCCCOc1ncnc(C3CC3)c1-c1ncc3cnn(c3n1)C2 [Example 56, 1^6-cyclopropyl-4^4-(5-methyl-3-(trifluoromethyl)-1H-pyrazol-1-yl)-2^1H-5,9-dioxa-2(6,1)-pyrazolo[3,4-d]pyrimidina-1(5,4)-pyrimidina-4(1,3)-benzenacyclononaphane] | ≤ 100
17 | CC(C)n1cc(C(F)(F)F)nc1-c1ccc2cc1/C=C\CCOc1ncnc(C3CC3)c1-c1ncc3cnn(c3n1)C2 [Example 46, (Z)-1^6-cyclopropyl-4^4-(1-isopropyl-4-(trifluoromethyl)-1H-imidazol-2-yl)-2^1H-9-oxa-2(6,1)-pyrazolo[3,4-d]pyrimidina-1(5,4)-pyrimidina-4(1,3)-benzenacyclononaphan-5-ene] | ≤ 100
18 | FC(F)(F)c1cn(C2CC2)c(-c2ccc3c(c2)CCCOc2ncnc(C4CC4)c2-c2ncc4ccc(n4n2)C3)n1 [Example 32, (Z)-1^6-cyclopropyl-4^4-(1-cyclopropyl-4-(trifluoromethyl)-1H-imidazol-2-yl)-8-oxa-2(2,7)-pyrrolo[2,1-f][1,2,4]triazina-1(5,4)-pyrimidina-4(1,2)-benzenacyclooctaphane] | ≤ 100
19 | FC(F)(F)c1cn(C2CC2)c(-c2ccc3c(c2)OCCOc2ncnc(C4CC4)c2-c2ncc4cnn(c4n2)C3)n1 [Example 13, 1^6-cyclopropyl-4^4-(1-cyclopropyl-4-(trifluoromethyl)-1H-imidazol-2-yl)-2^1H-5,8-dioxa-2(6,1)-pyrazolo[3,4-d]pyrimidina-1(5,4)-pyrimidina-4(1,2)-benzenacyclooctaphane] | ≤ 100
20 | FC(F)(F)c1cn(C2CC2)c(-c2ccc3c(c2)/C=C/COc2ncnc(C4CC4)c2-c2ncc4ccc(n4n2)C3)n1 [Example 39, (2^1Z,5E)-1^6-cyclopropyl-4^4-(1-cyclopropyl-4-(trifluoromethyl)-1H-imidazol-2-yl)-8-oxa-2(2,7)-pyrrolo[2,1-f][1,2,4]triazina-1(5,4)-pyrimidina-4(1,2)-benzenacyclooctaphan-5-ene] | 100 to 1000
